Values joined by “and” are separate entries in the source; they are usually repeats but may differ in a detail not shown here. Identical values can stand only once. “Also recorded” adds a separate entry of the source. Like-named read-outs stand apart in the source and are kept apart here.
Columns and labels:
[1] = system: D. immitis transglutaminase; test: Effect of ions, inhibitors and other reagents on activity of transglutaminase purified from adult D. immitis worms (microtiter plate assay); type: biochemical
PHIS-PDiTG468 [2] = type: biochemical, D. immitis
PHIS-PDiTG468 [3] = type: biochemical, D. immitis; remark: listed apart in the source
D. immitis L3 larvae = test: D. immitis L3 larval molting in in vitro larval culture; type: cell-based
PDI from bovine liver = molecular target: T1, PDI from bovine liver (Bos taurus, UniProt P05307); test: Effect of transglutaminase inhibitors on PDI activity of purified bovine liver PDI (scrambled RNase reactivation); type: biochemical; settings: inhibitor 1 mM
T1 sequence (P05307 21-510): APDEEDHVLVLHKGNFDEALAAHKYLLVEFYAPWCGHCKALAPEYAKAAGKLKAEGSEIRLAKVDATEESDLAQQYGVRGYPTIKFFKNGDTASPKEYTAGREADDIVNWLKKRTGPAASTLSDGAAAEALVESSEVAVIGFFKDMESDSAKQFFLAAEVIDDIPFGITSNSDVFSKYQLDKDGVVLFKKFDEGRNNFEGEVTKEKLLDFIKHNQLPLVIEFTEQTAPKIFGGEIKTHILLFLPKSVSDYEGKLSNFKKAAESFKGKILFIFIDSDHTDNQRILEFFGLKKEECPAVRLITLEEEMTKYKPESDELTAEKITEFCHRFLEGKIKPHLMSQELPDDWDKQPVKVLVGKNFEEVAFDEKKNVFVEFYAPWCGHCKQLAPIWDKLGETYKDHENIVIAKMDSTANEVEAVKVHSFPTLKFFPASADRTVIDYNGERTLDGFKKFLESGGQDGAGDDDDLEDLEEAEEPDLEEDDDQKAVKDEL

[4] = molecular target: bovine protein disulfide isomerase (PDI) (Bos taurus, UniProt P05307)
dimethylcasein = type: biochemical
[5] = reagent 10 mM, with 10 mM CaCl2 and 10 mM dithiothreitol
[6] = 50 μM, inhibitor present during first 24 hr of L3 culture
[7] = 100 μM, inhibitor present during first 24 hr of L3 culture
[8] = reagent 1 mM, with 10 mM CaCl2 and 10 mM dithiothreitol

Molecule: O[C@H](CS)[C@H](O)CS (racemic) [Dithiothreitol]
- Effect on activity of transglutaminase purified from adult D. immitis worms (in words) [1]: increased the enzyme activity substantially
- Effect on transglutaminase activity of PHIS-PDiTG468 (in words) (PHIS-PDiTG468 [2]): more active in the absence of DTT

Molecule: N.N.O=S(=O)(O)O [(NH4)2SO4]
- Transglutaminase activity (% of control) [1, 5]: 0 % of control

Molecule: NCCSSCCN [Cystamine]
- PDI Activity (Mean ± SD) of PHIS-PDiTG468 (PHIS-PDiTG468 [3]): 33.3 ± 1.8 ΔA min^−1
- Percent molted (D. immitis L3 larvae; 25 μM, L3 cultured 6 days): 61%
- Percent molted (D. immitis L3 larvae; 50 μM, L3 cultured 6 days): 62%
- Percent molted (D. immitis L3 larvae; [6]): 68%
- Percent molted (D. immitis L3 larvae; 75 μM, L3 cultured 6 days): 17%
- Percent molted (D. immitis L3 larvae; 85 μM, L3 cultured 6 days): 1%
- Inhibition of molting of L3 to L4 (in words) (D. immitis L3 larvae; 100 μM final concentration): completely inhibited the molting process
- Percent molted (D. immitis L3 larvae; 100 μM, L3 cultured 6 days): 0%
- Percent molted (D. immitis L3 larvae; [7]): 13%
- Inhibition of larval molting (in words) (D. immitis L3 larvae; added on day 2 during the culture): very effective inhibitor of larval molting
- PDI Activity (Mean ± SD) of PDI (PDI from bovine liver): 26.4 ± 2.9 ΔA min^−1
- Effect on activity of transglutaminase purified from adult D. immitis worms (in words) [1]: inhibited competitively
- Transglutaminase activity (% of control) [1, 8]: 52 % of control
- Activity (mU ± SEM) (PHIS-PDiTG468 [2]): 46.4 ± 4.6 mU and 28.3 ± 2.2 mU
- Effect on transglutaminase activity of PHIS-PDiTG468 (in words) (PHIS-PDiTG468 [2]): inhibited the transglutaminase activity

Molecule: O=C(O)CN(CCN(CC(=O)O)CC(=O)O)CC(=O)O [EDTA]
- Effect on transglutaminase activity of bovine PDI (in words) [4]: inhibited
- Effect on transglutaminase activity of PHIS-PDiTG468 (in words) (PHIS-PDiTG468 [2]): inhibited

Molecule: O=C(O)CN(CCOCCOCCN(CC(=O)O)CC(=O)O)CC(=O)O [EGTA]
- Effect on activity of transglutaminase purified from adult D. immitis worms (in words) [1]: completely blocked the activity
- Transglutaminase activity (% of control) [1, 5]: 0 % of control
- Effect on transglutaminase activity of PHIS-PDiTG468 (in words) (PHIS-PDiTG468 [2]): inhibited

Molecule: Nc1nc2c(ncn2[C@@H]2O[C@H](COP(=O)(O)OP(=O)(O)OP(=O)(O)O)[C@@H](O)[C@H]2O)c(=O)[nH]1 [GTP]
- Effect on activity of transglutaminase purified from adult D. immitis worms (in words) [1]: not affected adversely
- Transglutaminase activity (% of control) ([1]; reagent 0.1 mM, with 10 mM CaCl2 and 10 mM dithiothreitol): 100 % of control
- Transglutaminase activity (% of control) [1, 8]: 95 % of control

Molecule: NC(=O)CI [Iodoacetamide]
- Inhibition of molting of L3 to L4 (in words) (D. immitis L3 larvae): able to inhibit
- Effect on activity of transglutaminase purified from adult D. immitis worms (in words) [1]: decreased the activity drastically
- Effect on transglutaminase activity of PHIS-PDiTG468 (in words) (PHIS-PDiTG468 [2]): inhibited the transglutaminase activity

Molecule: [Cl-].[K+] [KCl]
- Transglutaminase activity (% of control) ([1]; reagent 500 mM, with 10 mM CaCl2 and 10 mM dithiothreitol): 54 % of control

Molecule: CN(C)c1cccc2c(S(=O)(=O)NCCCCCN)cccc12 [Monodansyl cadaverine]
- PDI Activity (Mean ± SD) of PHIS-PDiTG468 (PHIS-PDiTG468 [3]): 41.2 ± 2.9 ΔA min^−1
- Percent molted (D. immitis L3 larvae; 25 μM, L3 cultured 6 days): 75%
- Percent molted (D. immitis L3 larvae; 50 μM, L3 cultured 6 days): 63%
- Percent molted (D. immitis L3 larvae; [6]): 64%
- Percent molted (D. immitis L3 larvae; 75 μM, L3 cultured 6 days): 28%
- Percent molted (D. immitis L3 larvae; 85 μM, L3 cultured 6 days): 2.5%
- Inhibition of molting of L3 to L4 (in words) (D. immitis L3 larvae; 100 μM final concentration, listed as MDC): completely inhibited the molting process; also recorded: completely inhibits
- Percent molted (D. immitis L3 larvae; 100 μM, L3 cultured 6 days): 0%
- Percent molted (D. immitis L3 larvae; [7]): 41%
- Molting of larvae cultured in the presence of MDC (in words) (D. immitis L3 larvae; day 6, electron microscopy study): failed to molt even on day 6
- PDI Activity (Mean ± SD) of PDI (PDI from bovine liver): 24.0 ± 2.0 ΔA min^−1
- Effect on activity of transglutaminase purified from adult D. immitis worms (in words) [1]: inhibited competitively
- Transglutaminase activity (% of control) [1, 8]: 9 % of control
- Activity (mU ± SEM) (PHIS-PDiTG468 [2]): 48.3 ± 4.0 mU and 44.6 ± 5.1 mU
- Effect on transglutaminase activity of PHIS-PDiTG468 (in words) (PHIS-PDiTG468 [2]): inhibited the transglutaminase activity

Molecule: NCCCCN [Putrescine]
- Effect on activity of transglutaminase purified from adult D. immitis worms (in words) [1]: inhibited competitively
- Transglutaminase activity (% of control) [1, 8]: 14 % of control
- Activity (mU ± SEM) (PHIS-PDiTG468 [2]): 36.5 ± 3.9 mU and 35.3 ± 4.3 mU
- Effect on transglutaminase activity of PHIS-PDiTG468 (in words) (PHIS-PDiTG468 [2]): inhibited the transglutaminase activity

Molecule: OCCS [mercaptoethanol]
- Effect on activity of transglutaminase purified from adult D. immitis worms (in words) [1]: increased the enzyme activity substantially

Molecule: Nα-CBZ-Gln-Gly
- Effect on activity of transglutaminase purified from adult D. immitis worms (in words) [1]: affects the enzyme activity only slightly
- Transglutaminase activity (% of control) [1]: 92 % of control

Molecule: Tris-HCl
- Effect on activity of transglutaminase purified from adult D. immitis worms (in words) [1]: reversibly inhibited the enzyme
- Transglutaminase activity (% of control) [1]: 66 % of control and 40 % of control

B1: PDI: bovine protein disulfide isomerase, purified from bovine liver, available from Sigma (protein, UniProt P05307 21-510, looked up)
Protein disulfide-isomerase: APDEEDHVLVLHKGNFDEALAAHKYLLVEFYAPWCGHCKALAPEYAKAAGKLKAEGSEIRLAKVDATEESDLAQQYGVRGYPTIKFFKNGDTASPKEYTAGREADDIVNWLKKRTGPAASTLSDGAAAEALVESSEVAVIGFFKDMESDSAKQFFLAAEVIDDIPFGITSNSDVFSKYQLDKDGVVLFKKFDEGRNNFEGEVTKEKLLDFIKHNQLPLVIEFTEQTAPKIFGGEIKTHILLFLPKSVSDYEGKLSNFKKAAESFKGKILFIFIDSDHTDNQRILEFFGLKKEECPAVRLITLEEEMTKYKPESDELTAEKITEFCHRFLEGKIKPHLMSQELPDDWDKQPVKVLVGKNFEEVAFDEKKNVFVEFYAPWCGHCKQLAPIWDKLGETYKDHENIVIAKMDSTANEVEAVKVHSFPTLKFFPASADRTVIDYNGERTLDGFKKFLESGGQDGAGDDDDLEDLEEAEEPDLEEDDDQKAVKDEL
- Temperature of optimum transglutaminase activity (dimethylcasein): 55 °C
- Activity (mU ± SEM) (dimethylcasein; 37 °C): 30.3 ± 1.0 mU
- Activity (mU ± SEM) (dimethylcasein; 45 °C): 47.2 ± 2.5 mU
- Activity (mU ± SEM) (dimethylcasein; 55 °C): 92.1 ± 4.3 mU
- Activity (mU ± SEM) (dimethylcasein; 65 °C): 67.0 ± 2.9 mU
